Results as given in US20210087496A1, “Non-Enzymatic Removal Of Proteinaceous Soils” (Henkel AG & Co. KGaA, priority 2019, published 2021).
Where two headings read alike, the source gives them in different places.

Target: T1, Maillard product of lactose and albumin from chicken egg (band at ~50-55 kDa) (Gallus gallus, UniProt P01012)
T1 sequence (P01012 1-386): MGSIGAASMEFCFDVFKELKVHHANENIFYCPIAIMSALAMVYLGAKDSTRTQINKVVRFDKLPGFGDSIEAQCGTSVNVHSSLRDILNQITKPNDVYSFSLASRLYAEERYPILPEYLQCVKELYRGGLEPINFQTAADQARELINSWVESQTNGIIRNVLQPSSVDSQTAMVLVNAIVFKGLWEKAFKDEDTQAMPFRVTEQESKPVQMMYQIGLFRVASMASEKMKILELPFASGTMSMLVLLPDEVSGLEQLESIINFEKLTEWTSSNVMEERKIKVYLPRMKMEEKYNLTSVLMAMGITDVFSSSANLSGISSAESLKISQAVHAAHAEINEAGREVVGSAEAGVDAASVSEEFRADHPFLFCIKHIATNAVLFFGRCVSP
Conditions: complex 0.2 mM, Maillard product 3 g/l, 60° C., pH 9.5
Protocol: A mixture of lactose and albumin from chicken egg, approx. 45 000 g/mol, in a weight ratio of 3:1 was dissolved in de-salinated water and stirred for 30 min at room temperature. The resulting solution was lyophilized using a commercial lab lyophilizer (Christ; Gamma 1-20) and homogenized. 0.5 g of the resulting powder was heated to 140° C. for 20 min and was then allowed to cool to room temperature. […] An aqueous solution of the Maillard product (3 g/l) was incubated at 60° C. at pH 9.5 (hydrogen carbonate/carbonate buffer) with the complexes of examples 1 and 2 at the concentrations and for amounts of time given in table 1. The progress of protein degradation was followed by SDS page gel analysis. The intensity value of the band at ˜50-55 kDa at time t=0, that is before the start of incubation, is set to 1.

With `O=C1CN2CCN3CC(=O)[O][Zr]([O]1)([O]c1ccccc1C2)[O]c1ccccc1C3` [Complex K1] the “Intensity of the band at ~50-55 kDa” value (t = 0 h (before start of incubation, set to 1)) was 1, the “Intensity of the band at ~50-55 kDa” value (t = 1 h, relative to t=0 set to 1) was 0.91 and the “Intensity of the band at ~50-55 kDa” value (t = 2 h, relative to t=0 set to 1) was 0.83.
